Results published in US8530466B2, “Use of 2,4-pyrimidinediamines for the treatment of atherosclerosis” (Rigel Pharmaceuticals, Inc., priority 2008, dated 2013).

How the values were obtained:
Human mast cells (CHMC) [1] = test: Mast cell activation induced by FcγR cross-linking: cytokine production (ELISA); format: cell-based; settings: 6-8 hrs post-IgG crosslinking
Procedure: (§1) Human mast cells were cultured and differentiated from […] progenitor cell as described in U.S. Patent Publication No. 2005-234049, incorporated herein by reference. […] A80-105A3) final concentration 1 μg/ml, was added to the test wells. MT (25 μl) was added to control wells. After a 60-minute incubation at 37° C., cells and cell debris were pelleted by centrifugation at 1000 rpm for 10 min and tryptase and leukotriene C4 levels were measured. Inhibition of release and/or synthesis of lipid mediators was assessed by measuring the release of LTC4 and inhibition of release and/or synthesis of cytokines was monitored by quantifying TNFα, IL-8, GM-CSF, IL-10 and IL-13. Cytokine (TNFα, IL-8, GM-CSF, IL-10, IL-13) production was measured 6-8 hrs post-IgG crosslinking. Leukotriene and cytokine levels were quantified using the following commercial ELISA kits: LTC4 (Cayman Chemical #520211), TNFα (Biosource #KHC3011), GM-CSF (Biosource #KHC0901), IL-10 (Biosource #KHC0122), and IL-13 (Biosource #KHC0132).

Human mast cells (CHMC) [2] = test: Mast cell activation induced by FcγR cross-linking: LTC4 release (ELISA); format: cell-based; settings: anti-IgG 1 μg/ml
Procedure: as §1, with “measured. Leukotriene C4 (LTC4) levels were quantified using an ELISA kit on appropriately diluted supernatant samples following the supplier's instructions (Cayman Chemical Co., Cat No. 520211).” for “measured.”

Platelets in PRP = test: CD62P surface expression by stimulated platelets (flow cytometry); format: cell-based, Human; settings: 15 min at 37° C.
Procedure: Human peripheral blood, from healthy volunteers who had not taken any medication for at least 7 days, was drawn into Vacutainer-ACD tubes (Acid citrate dextrose (ACD) Solution Tubes, VWR Cat. No. VT4606). Platelet-rich plasma (PRP) and platelet-poor plasma (PPP) were prepared by differential centrifugation (200 g and >2500 g, respectively, 20 min, RT). Platelets in PRP were incubated for 10 min at 37° C. with test article-DMSO solutions that had been previously diluted in MT buffer (137 mM NaCl, 2.7 mM KCl, 1.8 mM CaCl2, 1.0 mM MgCl2, 5.6 mM glucose, 20 mM Hepes, 0.1% BSA; pH 7.4). The test articles included dimethyl Sulfoxide (DMSO) (Sigma-Aldrich, Cat No. D2650), wortmannin Penicillium funiculosum (Sigma-Aldrich, Cat No. W1628), and 6-(5-fluoro-2-(3,4,5-trimethoxyphenylamino)pyrimidin-4-ylamino)-2,2-dimethyl-2H-pyrido[3,2-b][1,4]oxazin-3(4H)-one (compound 1).
Cells were stimulated with collagen (Chronolog Corp. Cat. No. 385) at 20 μg/mL, adenosine 5′-diphosphate (ADP) (Sigma-Aldrich Cat. No. A2754) at 33 μM, or phorbol 12-Myristate 13-Acetate (PMA) (Sigma-Aldrich Cat. No. P8139) at 33 ng/mL, for 15 min at 37° C., then incubated with staining antibody (anti-CD62P PE) at RT in the dark for 20 min, and fixed with paraformaldehyde (Cytofix fixation buffer) in the dark for 30 min at RT. Finally, cells were washed with PBS containing 2% fetal bovine serum and stored at 4° C. in the dark prior to flow cytometry. Measurements were performed using a FACScalibur flow cytometer (BD Biosciences, San Jose, Calif., USA). CD62P expression was expressed as geometric mean fluorescence on the vertical axis.

Human mast cells (CHMC) [3] = test: Mast cell activation induced by FcγR cross-linking: degranulation (tryptase); format: cell-based; settings: anti-IgG 1 μg/ml, 60-minute incubation
Procedure: Human mast cells were cultured and differentiated from CD38-negative progenitor cell as described in U.S. Patent Publication No. 2005-234049, incorporated herein by reference. For example, 65 μl of various concentrations of 6-(5-fluoro-2-(3,4,5-trimethoxyphenylamino) pyrimidin-4-ylamino)-2,2-dimethyl-2H-pyrido[3,2-b][1,4]oxazin-3(4H)-one (compound 1), prepared in MT (137 mM NaCl, 2.7 mM KCl, 1.8 mM CaCl2, 1.0 mM MgCl2, 5.6 mM Glucose, 20 mM Hepes (pH 7.4), 0.1% Bovine Serum Albumin, (Sigma A4503)) containing 2% MeOH and 1% DMSO, or control buffer were added to duplicate 96-well V-bottom plates. Pelleted and resuspended (in warm MT) CHMC cells (65 μl) were added to each 96-well plate, mixed and incubated for 1 hr at 37° C. […] After a 60-minute incubation at 37° C., cells and cell debris were pelleted by centrifugation at 1000 rpm for 10 min and tryptase and leukotriene C4 levels were measured.
To measure tryptase levels, 25 μl of supernatant from each well was transferred to a fresh 96-well black bottom plate, to which 100 μl of fresh tryptase substrate solution [(Z-Ala-Lys-Arg-AMC2TFA; Enzyme Systems Products, #AMC-246)] […] After 30 min incubation at room temperature, the optical density of the plates is measured at 355 nm/460 nm on a spectrophotometric plate reader. […]

COc1cc(Nc2ncc(F)c(Nc3ccc4c(n3)NC(=O)C(C)(C)O4)n2)cc(OC)c1OC [Compound 1, 6-(5-fluoro-2-(3,4,5-trimethoxyphenylamino)pyrimidin-4-ylamino)-2,2-dimethyl-2H-pyrido[3,2-b][1,4]oxazin-3(4H)-one]
EC50 (Human mast cells (CHMC) [1]; listed as lot B, read-out: EC50 GMCSF): 67 nM
EC50 (Human mast cells (CHMC) [1]; listed as lot B, read-out: EC50 IL-8): 62 nM
EC50 (Human mast cells (CHMC) [1]; listed as lot B, read-out: EC50 IL-10): 148 nM
EC50 (Human mast cells (CHMC) [1]; listed as lot B, read-out: EC50 IL-13): 148 nM
EC50 (Human mast cells (CHMC) [1]; listed as lot B, read-out: EC50 TNFα): 120 nM
EC50 (Human mast cells (CHMC) [1]; Homo sapiens, Mast cell, read-out: EC50 GMCSF): 46 nM
EC50 (Human mast cells (CHMC) [1]; Homo sapiens, Mast cell, read-out: EC50 IL-8): 45 nM
EC50 (Human mast cells (CHMC) [1]; Homo sapiens, Mast cell, read-out: EC50 IL-10): 125 nM
EC50 (Human mast cells (CHMC) [1]; Homo sapiens, Mast cell, read-out: EC50 IL-13): 90 nM
EC50 (Human mast cells (CHMC) [2]; Homo sapiens, Mast cell): 36 nM
EC50 (Human mast cells (CHMC) [2]; listed as lot B): 47 nM
CD62P surface upregulation in platelets induced by ADP (Platelets in PRP; ADP 33 μM): did not inhibit
CD62P surface upregulation in platelets induced by PMA (Platelets in PRP; PMA 33 ng/mL): did not inhibit
collagen receptor mediated platelet activation (CD62P surface expression) (Platelets in PRP; collagen 20 μg/mL): inhibited
EC50 (Human mast cells (CHMC) [3]; Homo sapiens, Mast cell, 1 h): 53 nM
EC50 (Human mast cells (CHMC) [3]; listed as lot B): 76 nM
